Test results reported in ChEMBL document CHEMBL6078630, “Design, synthesis, and bioactivity investigation of novel cyclic lipopeptide antibiotics targeting top-priority multidrug-resistant gram-negative bacteria” (Eur J Med Chem, 2024).
Values after ≈ are worked out from the molar mass of the structure shown. Bridge positions count the residues as written; N and C are the ends. Square brackets hold non-standard residues; d marks the D form. Peptide text beside a SMILES is read from it. * marks the point of attachment. Heptanoyl(6-Me) = CC(C)CCCCC(=O)*; Octanoyl(6-Me) = CCC(C)CCCCC(=O)*; X1 = CC[C@H](C)CCCCC(=O)*; dDap = NC[C@@H](N)C(=O)O; Dab = NCC[C@H](N)C(=O)O

Tests used:
[1] = Nephrotoxicity against Sprague-Dawley rat assessed as increase in BUN level at 4 mg/kg, iv administered for 7 days by fully automated biochemistry analyzer XR200PLUS; assay type: toxicity, organism-based; conditions: in vivo, 168 h, time 7 day
[2] = Acute toxicity in iv dosed Swiss mouse assessed as maximum tolerated dose measured after 24 hrs; assay type: organism-based; conditions: in vivo
[3] = Renal cytotoxicity against HK-2 cells incubated for 72 hrs by CCK8 assay; assay type: toxicity, cell-based; conditions: human
[4] = Nephrotoxicity against Sprague-Dawley rat assessed as increase in CRE level at 4 mg/kg, iv administered for 7 days by fully automated biochemistry analyzer XR200PLUS; assay type: toxicity, organism-based; conditions: in vivo, 168 h, time 7 day
Pseudomonas aeruginosa [5] = assay: Antibacterial activity against carbapenem-resistant Pseudomonas aeruginosa clinical isolate 19-3 assessed as inhibition of bacterial growth incubated for 16 to 20 hrs by CLSI protocol based broth microdilution method; assay type: functional; conditions: time 16-20 hrs
Acinetobacter baumannii [6] = assay: Antibacterial activity against carbapenem-resistant Acinetobacter baumannii clinical isolate ets178 assessed as inhibition of bacterial growth incubated for 24 hrs by CLSI protocol based broth microdilution method; assay type: functional
Acinetobacter baumannii [7] = assay: Antibacterial activity against carbapenem-resistant Acinetobacter baumannii clinical isolate ets30 assessed as inhibition of bacterial growth incubated for 24 hrs by CLSI protocol based broth microdilution method; assay type: functional
Pseudomonas aeruginosa [8] = assay: Antibacterial activity against carbapenem-resistant Pseudomonas aeruginosa clinical isolate ets55 assessed as inhibition of bacterial growth incubated for 24 hrs by CLSI protocol based broth microdilution method; assay type: functional
Klebsiella pneumoniae [9] = assay: Antibacterial activity against carbapenem-resistant Klebsiella pneumoniae clinical isolate ets77 assessed as inhibition of bacterial growth incubated for 24 hrs by CLSI protocol based broth microdilution method; assay type: functional
Pseudomonas aeruginosa [10] = assay: Antibacterial activity against carbapenem-resistant Pseudomonas aeruginosa clinical isolate ets22 assessed as inhibition of bacterial growth incubated for 24 hrs by CLSI protocol based broth microdilution method; assay type: functional
Pseudomonas aeruginosa [11] = assay: Antibacterial activity against carbapenem-resistant Pseudomonas aeruginosa clinical isolate ets83 assessed as inhibition of bacterial growth incubated for 24 hrs by CLSI protocol based broth microdilution method; assay type: functional
Klebsiella pneumoniae [12] = assay: Antibacterial activity against carbapenem-resistant Klebsiella pneumoniae clinical isolate ets40 assessed as inhibition of bacterial growth incubated for 24 hrs by CLSI protocol based broth microdilution method; assay type: functional
Acinetobacter baumannii [13] = assay: Antibacterial activity against Acinetobacter baumannii NCTC 13304 (OXA-27) assessed as inhibition of bacterial growth incubated for 16 to 20 hrs by CLSI protocol based broth microdilution method; assay type: functional; conditions: time 16-20 hrs
Klebsiella pneumoniae [14] = assay: Antibacterial activity against carbapenem-resistant Klebsiella pneumoniae ATCC BAA-1705 assessed as inhibition of bacterial growth incubated for 16 to 20 hrs by CLSI protocol based broth microdilution method; assay type: functional; conditions: time 16-20 hrs
Acinetobacter baumannii [15] = assay: Antibacterial activity against carbapenem-resistant Acinetobacter baumannii clinical isolate ets171 assessed as inhibition of bacterial growth incubated for 24 hrs by CLSI protocol based broth microdilution method; assay type: functional
Klebsiella pneumoniae [16] = assay: Antibacterial activity against carbapenem-resistant Klebsiella pneumoniae clinical isolate ets75 assessed as inhibition of bacterial growth incubated for 24 hrs by CLSI protocol based broth microdilution method; assay type: functional
Escherichia coli [17] = assay: Antibacterial activity against carbapenem-resistant Escherichia coli clinical isolate 231016w014 assessed as inhibition of bacterial growth incubated for 24 hrs by CLSI protocol based broth microdilution method; assay type: functional
Pseudomonas aeruginosa [18] = assay: Antibacterial activity against carbapenem-resistant Pseudomonas aeruginosa clinical isolate ets84 assessed as inhibition of bacterial growth incubated for 24 hrs by CLSI protocol based broth microdilution method; assay type: functional
Pseudomonas aeruginosa [19] = assay: Antibacterial activity against carbapenem-resistant Pseudomonas aeruginosa clinical isolate ets33 assessed as inhibition of bacterial growth incubated for 24 hrs by CLSI protocol based broth microdilution method; assay type: functional
Klebsiella pneumoniae [20] = assay: Antibacterial activity against carbapenem-resistant Klebsiella pneumoniae clinical isolate ets45 assessed as inhibition of bacterial growth incubated for 24 hrs by CLSI protocol based broth microdilution method; assay type: functional
Escherichia coli [21] = assay: Antibacterial activity against carbapenem-resistant Escherichia coli ATCC BAA-2340 assessed as inhibition of bacterial growth incubated for 16 to 20 hrs by CLSI protocol based broth microdilution method; assay type: functional; conditions: time 16-20 hrs
Escherichia coli [22] = assay: Antibacterial activity against carbapenem-resistant Escherichia coli clinical isolate 231109W005 assessed as inhibition of bacterial growth incubated for 24 hrs by CLSI protocol based broth microdilution method; assay type: functional
Acinetobacter baumannii [23] = assay: Antibacterial activity against carbapenem-resistant Acinetobacter baumannii clinical isolate ets104 assessed as inhibition of bacterial growth incubated for 24 hrs by CLSI protocol based broth microdilution method; assay type: functional
Pseudomonas aeruginosa [24] = assay: Antibacterial activity against carbapenem-resistant Pseudomonas aeruginosa clinical isolate ets49 assessed as inhibition of bacterial growth incubated for 24 hrs by CLSI protocol based broth microdilution method; assay type: functional
Pseudomonas aeruginosa [25] = assay: Antibacterial activity against carbapenem-resistant Pseudomonas aeruginosa clinical isolate ets85 assessed as inhibition of bacterial growth incubated for 24 hrs by CLSI protocol based broth microdilution method; assay type: functional
Acinetobacter baumannii [26] = assay: Antibacterial activity against carbapenem-sensitive Acinetobacter baumannii clinical isolate 19-1 assessed as inhibition of bacterial growth incubated for 16 to 20 hrs by CLSI protocol based broth microdilution method; assay type: functional; conditions: time 16-20 hrs
Pseudomonas aeruginosa [27] = assay: Antibacterial activity against carbapenem-resistant Pseudomonas aeruginosa clinical isolate ets6 assessed as inhibition of bacterial growth incubated for 24 hrs by CLSI protocol based broth microdilution method; assay type: functional
Pseudomonas aeruginosa [28] = assay: Antibacterial activity against carbapenem-resistant Pseudomonas aeruginosa clinical isolate ets104 assessed as inhibition of bacterial growth incubated for 24 hrs by CLSI protocol based broth microdilution method; assay type: functional
Klebsiella pneumoniae [29] = assay: Antibacterial activity against carbapenem-resistant Klebsiella pneumoniae clinical isolate ets74 assessed as inhibition of bacterial growth incubated for 24 hrs by CLSI protocol based broth microdilution method; assay type: functional
Pseudomonas aeruginosa [30] = assay: Antibacterial activity against carbapenem-resistant Pseudomonas aeruginosa clinical isolate ets5 assessed as inhibition of bacterial growth incubated for 24 hrs by CLSI protocol based broth microdilution method; assay type: functional
Escherichia coli [31] = assay: Antibacterial activity against Escherichia coli ATCC BAA-2523 assessed as inhibition of bacterial growth incubated for 16 to 20 hrs by CLSI protocol based broth microdilution method; assay type: functional; conditions: time 16-20 hrs
Klebsiella pneumoniae [32] = assay: Antibacterial activity against carbapenem-resistant Klebsiella pneumoniae clinical isolate ets26 assessed as inhibition of bacterial growth incubated for 24 hrs by CLSI protocol based broth microdilution method; assay type: functional
Escherichia coli [33] = assay: Antibacterial activity against carbapenem-resistant Escherichia coli clinical isolate 231112E006B assessed as inhibition of bacterial growth incubated for 24 hrs by CLSI protocol based broth microdilution method; assay type: functional
Klebsiella pneumoniae [34] = assay: Antibacterial activity against carbapenem-resistant Klebsiella pneumoniae clinical isolate KPN+19-15 assessed as inhibition of bacterial growth incubated for 16 to 20 hrs by CLSI protocol based broth microdilution method; assay type: functional; conditions: time 16-20 hrs
Klebsiella pneumoniae [35] = assay: Antibacterial activity against carbapenem-resistant Klebsiella pneumoniae clinical isolate ets78 assessed as inhibition of bacterial growth incubated for 24 hrs by CLSI protocol based broth microdilution method; assay type: functional
Klebsiella pneumoniae [36] = assay: Antibacterial activity against carbapenem-resistant Klebsiella pneumoniae clinical isolate ets80 assessed as inhibition of bacterial growth incubated for 24 hrs by CLSI protocol based broth microdilution method; assay type: functional
Pseudomonas aeruginosa [37] = assay: Antibacterial activity against carbapenem-resistant Pseudomonas aeruginosa clinical isolate ets15 assessed as inhibition of bacterial growth incubated for 24 hrs by CLSI protocol based broth microdilution method; assay type: functional
Pseudomonas aeruginosa [38] = assay: Antibacterial activity against Pseudomonas aeruginosa ATCC 27853 assessed as inhibition of bacterial growth incubated for 16 to 20 hrs by CLSI protocol based broth microdilution method; assay type: functional; conditions: time 16-20 hrs
Pseudomonas aeruginosa [39] = assay: Antibacterial activity against carbapenem-resistant Pseudomonas aeruginosa clinical isolate ets38 assessed as inhibition of bacterial growth incubated for 24 hrs by CLSI protocol based broth microdilution method; assay type: functional
Acinetobacter baumannii [40] = assay: Antibacterial activity against carbapenem-resistant Acinetobacter baumannii clinical isolate ets123 assessed as inhibition of bacterial growth incubated for 24 hrs by CLSI protocol based broth microdilution method; assay type: functional
Escherichia coli [41] = assay: Antibacterial activity against Escherichia coli ATCC BAA-2523 infected in ICR mouse model administered intravenously with compound at 1 and 6 hrs post-infection and measured after 7 days; assay type: functional; conditions: ATCC BAA-2523, 168 h, route iv, time 7 day
Klebsiella pneumoniae [42] = assay: Antibacterial activity against carbapenem-resistant Klebsiella pneumoniae ATCC BAA-1705 infected in ICR mouse model administered intravenously with compound at 1 and 6 hrs post-infection and measured after 7 days; assay type: functional; conditions: ATCC BAA-1705, 168 h, route iv, time 7 day
Acinetobacter baumannii [43] = assay: Antibacterial activity against carbapenem-resistant Acinetobacter baumannii NCTC13304 infected in ICR mouse model administered intravenously with compound at 1 and 6 hrs post-infection and measured after 7 days; assay type: functional; conditions: NCTC13304, 168 h, route iv, time 7 day

## CC(C)CCCCC(=O)N[C@@H](CCN)C(=O)N[C@H](C(=O)N[C@@H](CCN)C(=O)N[C@H]1CCNC(=O)[C@H]([C@@H](C)O)NC(=O)[C@H](CCN)NC(=O)[C@H](CCN)NC(=O)[C@H](CC(C)C)NC(=O)[C@@H](Cc2ccccc2)NC(=O)[C@H](CCN)NC1=O)[C@@H](C)O.CC[C@H](C)CCCCC(=O)N[C@@H](CCN)C(=O)N[C@H](C(=O)N[C@@H](CCN)C(=O)N[C@H]1CCNC(=O)[C@H]([C@@H](C)O)NC(=O)[C@H](CCN)NC(=O)[C@H](CCN)NC(=O)[C@H](CC(C)C)NC(=O)[C@@H](Cc2ccccc2)NC(=O)[C@H](CCN)NC1=O)[C@@H](C)O (X1-[Dab]T[Dab][Dab][Dab][dF]L[Dab][Dab]T; lactam 4-C)
[1]
  Activity: Toxic
[2]
  MTD at 24 h: 5.4 mg/kg
[3]
  IC50 at 72 h: 66.3 µg/mL
[4]
  Activity: Toxic

## CC(C)CCCCC(=O)N[C@@H](CCN)C(=O)N[C@H](C(=O)N[C@H](CN)C(=O)N[C@H]1CCNC(=O)[C@H]([C@@H](C)O)NC(=O)[C@H](CCN)NC(=O)[C@H](CCN)NC(=O)[C@H]([C@@H](C)O)NC(=O)[C@@H](Cc2ccccc2)NC(=O)[C@H](CCN)NC1=O)[C@@H](C)O ({Heptanoyl(6-Me)}-[Dab]T[dDap][Dab][Dab][dF]T[Dab][Dab]T; lactam 4-C)
Pseudomonas aeruginosa [5]
  MIC: 0.125 µg/mL (≈ 0.107 µM)
Acinetobacter baumannii [6]
  MIC: 1 µg/mL (≈ 0.86 µM)
Acinetobacter baumannii [7]
  MIC: 2 µg/mL (≈ 1.72 µM)
Pseudomonas aeruginosa [8]
  MIC: 1 µg/mL (≈ 0.86 µM)
Klebsiella pneumoniae [9]
  MIC: 0.5 µg/mL (≈ 0.43 µM)
Pseudomonas aeruginosa [10]
  MIC: 2 µg/mL (≈ 1.72 µM)
Pseudomonas aeruginosa [11]
  MIC: 0.5 µg/mL (≈ 0.43 µM)
Klebsiella pneumoniae [12]
  MIC: 0.125 µg/mL (≈ 0.107 µM)
Acinetobacter baumannii [13]
  MIC: ≤ 0.03 µg/mL
Klebsiella pneumoniae [14]
  MIC: ≤ 0.03 µg/mL
Acinetobacter baumannii [15]
  MIC: 0.5 µg/mL (≈ 0.43 µM)
Klebsiella pneumoniae [16]
  MIC: 0.5 µg/mL (≈ 0.43 µM)
Escherichia coli [17]
  MIC: < 0.06 µg/mL
Pseudomonas aeruginosa [18]
  MIC: 2 µg/mL (≈ 1.72 µM)
Pseudomonas aeruginosa [19]
  MIC: 4 µg/mL (≈ 3.44 µM)
Klebsiella pneumoniae [20]
  MIC: 0.25 µg/mL (≈ 0.215 µM)
Escherichia coli [21]
  MIC: ≤ 0.03 µg/mL
Escherichia coli [22]
  MIC: < 0.06 µg/mL
[3]
  IC50 at 72 h: > 500 µg/mL
Acinetobacter baumannii [23]
  MIC: 0.06 µg/mL (≈ 0.0516 µM)
Pseudomonas aeruginosa [24]
  MIC: < 0.06 µg/mL
Pseudomonas aeruginosa [25]
  MIC: 0.5 µg/mL (≈ 0.43 µM)
Acinetobacter baumannii [26]
  MIC: ≤ 0.03 µg/mL
Pseudomonas aeruginosa [27]
  MIC: 0.5 µg/mL (≈ 0.43 µM)
Pseudomonas aeruginosa [28]
  MIC: 1 µg/mL (≈ 0.86 µM)
Klebsiella pneumoniae [29]
  MIC: 0.5 µg/mL (≈ 0.43 µM)
Pseudomonas aeruginosa [30]
  MIC: 1 µg/mL (≈ 0.86 µM)
Escherichia coli [31]
  MIC: ≤ 0.03 µg/mL
Klebsiella pneumoniae [32]
  MIC: 0.5 µg/mL (≈ 0.43 µM)
Escherichia coli [33]
  MIC: < 0.06 µg/mL
Klebsiella pneumoniae [34]
  MIC: ≤ 0.03 µg/mL
Klebsiella pneumoniae [35]
  MIC: 0.25 µg/mL (≈ 0.215 µM)
Klebsiella pneumoniae [36]
  MIC: 0.5 µg/mL (≈ 0.43 µM)
Pseudomonas aeruginosa [37]
  MIC: 1 µg/mL (≈ 0.86 µM)
Pseudomonas aeruginosa [38]
  MIC: ≤ 0.03 µg/mL
Pseudomonas aeruginosa [39]
  MIC: 0.5 µg/mL (≈ 0.43 µM)
Acinetobacter baumannii [40]
  MIC: 2 µg/mL (≈ 1.72 µM)

## CCC(C)CCCCC(=O)N[C@@H](CCN)C(=O)N[C@H](C(=O)N[C@@H](CCN)C(=O)N[C@H]1CCNC(=O)[C@H]([C@@H](C)O)NC(=O)[C@H](CCN)NC(=O)[C@H](CCN)NC(=O)[C@H](CC(C)C)NC(=O)[C@@H](CC(C)C)NC(=O)[C@H](CCN)NC1=O)[C@@H](C)O (stereo partly drawn) ({Octanoyl(6-Me)}-[Dab]T[Dab][Dab][Dab][dL]L[Dab][Dab]T; lactam 4-C)
Escherichia coli [41]
  ED50: 0.47 mg/kg
Klebsiella pneumoniae [42]
  ED50: 0.39 mg/kg
Acinetobacter baumannii [43]
  ED50: 0.98 mg/kg
